From patent US20110009376A1, “PROPHYLACTIC OR THERAPEUTIC AGENT FOR EYE DISEASE ACCOMPANIED BY OPTIC NERVE DISORDER” (priority 2008, published 2011)

Tests used:
[1] = system: chick retinal cells; conditions: chick retinal cells in an embryonic stage; cited from earlier work
[2] = system: NQO-1; test: Induction of gene expression in rat fetus-derived retinal neuron culture system (quantitative PCR); type: cell-based; conditions: mean ± standard deviation, normalized to GAPDH
Procedure: (§1) Test 1: Study of Ability to Induce Expression of Genes of Phase II Xenobiotic Metabolizing Enzyme and Antioxidant Enzyme using Rat Fetus-Derived Retinal Neuron Culture System
(§2) The ability of Ebselen to induce the expression of genes of a phase II xenobiotic metabolizing enzyme and an antioxidant enzyme was evaluated using a rat fetus-derived retinal neuron culture system (Brain Res. 2003; 967: 257-66) Incidentally, the rat fetus-derived retinal neuron culture system has been extensively used as a technique for culturing retinal neurons and has been widely used as one of the tools for studying optic nerve diseases such as glaucoma.
(§3) Retinal neurons of a rat fetus (Slc:Wistar/ST, 18 days old) were isolated and seeded onto a polyethyleneimine-coated plastic coverslip. Then, the cells were cultured for 3 days in an Eagle's minimum essential medium supplemented with 10% fetal bovine serum. Thereafter, a solvent (0.1% ethanol) or Ebselen was added thereto to give a final concentration of 25 μM, and the cells were incubated in the culture medium. Incidentally, the culture was performed under the conditions of 37° C. and 5% CO2. The culture medium was removed at each time point of 4, 8, or 12 hours after initiation of incubation. A mixed solution was prepared by adding 1% (v/v) β-mercaptoethanol (manufactured by BioRad, Cat No. 161-0710) to Buffer RLT attached to RNeasy Mini Kit (250) (manufactured by QIAGEN, Cat No. 74106), and the retinal neurons on the plastic coverslip were lysed with the thus prepared mixed solution. The total RNA was extracted from the resulting cell lysate according to the protocol attached to the RNeasy Mini Kit (250), and cDNA was synthesized using ExScript™ RT reagent Kit (manufactured by TAKARA, Cat No. RR035B). According to the protocol attached to SYBR Premix Ex Taq (Perfect Real Time) (manufactured by TAKARA, Cat No. RR041B), SYBR Premix Ex Taq (Perfect Real Time), ROX Reference Dye, the synthesized cDNA, and each primer pair of glyceraldehyde-3-phosphate dehydrogenase (hereinafter also referred to as “GAPDH”), GCLM, TRxR, HO-1, or NQO-1 (manufactured by Nihon Gene Research Laboratories Inc.) were mixed, and PCR reaction was performed using a quantitative PCR system (manufactured by Applied Biosystems, system name: ABI PRISM 7000), and the expression level of each of the genes of GAPDH, GCLM, TRxR, HO-1, and NQO-1 was measured. From the obtained results, a relative expression level of each target gene was calculated by normalizing the expression level of each target gene with the expression level of GAPDH which is a housekeeping gene according to the equation 1. Further, an induction ratio (%) of each target gene to the vehicle group was obtained by dividing the value of the expression level of each gene in the 25 μM Ebselen group by a mean value of the expression level of the same gene in the vehicle group according to the equation 2. Each data was shown as the mean±standard deviation of three independent experiments.
(§4) Relative expression level of each target gene=(Expression level of each gene/Expression level of GAPDH) [Equation 1]
(§5) Induction ratio of each target gene to vehicle group (%)=(Expression level of each gene in 25 μM Ebselen group/Expression level of each gene in vehicle group) [Equation 2]

[3] = system: TRxR; test: as above; type: cell-based; conditions: mean ± standard deviation, normalized to GAPDH
Procedure: as §1, §2, §3, §4, §5

[4] = system: HO-1; test: as above; type: cell-based; conditions: mean ± standard deviation, normalized to GAPDH
Procedure: as §1, §2, §3, §4, §5

[5] = system: GCLM; test: as above; type: cell-based; conditions: mean ± standard deviation, normalized to GAPDH
Procedure: as §1, §2, §3, §4, §5

[6] = system: cells in the retinal ganglion cell layer; test: Rat model of ischemia/reperfusion-induced retinal damage; type: in vivo; conditions: oral, twice daily for 12 days, eyes taken 7 days after ischemia/reperfusion
Procedure: The usefulness of Ebselen against retinal ischemia/reperfusion damage was evaluated using a rat model of ischemia/reperfusion-induced retinal damage (Ophthalmologica. 1991; 203: 138-147) as a model for studying an effect on retinal damage induced by ischemia/reperfusion.
A 1% (w/v) atropine sulfate hydrate ophthalmic solution (manufactured by Nihon Tenganyaku, Co. Ltd., product name: Nitten ATROPINE Ophthalmic Solution 1%) was instilled into the eye of a rat (Slc:SD, male, about 7 weeks old) to cause mydriasis, and general anesthesia was induced by allowing the rat to inhale a gas obtained by vaporizing 3% (v/v) halothane (manufactured by Takeda Pharmaceutical Company Limited., product name: Fluothane) by a mixed gas (2 L/min) of 100% (v/v) oxygen (0.5 L/min) and 100% (v/v) nitrous oxide (1.5 L/min), and the anesthesia was maintained under conditions of 1% (v/v) halothane. […] From the 8 sections, 3 sections were arbitrarily selected, and with respect to the selected sections, a photograph of the retina in the range of from 1 to 1.5 mm on the left or right side from the optic nerve head was taken, and the number of cells in the retinal ganglion cell layer was measured. […]

[7] = system: photoreceptor cells (visual cells); conditions: ischemia/reperfusion rabbit model; cited from earlier work

In the case of `O=c1c2ccccc2[se]n1-c1ccccc1` [Ebselen, 2-phenyl-1,2-benzisoselenazol-3(2H)-one], the “Effect on cell death caused by glutamate excitotoxicity” value [1] is given as “inhibited the cell death caused by glutamate excitotoxicity”, the “Induction ratio of expression of NQO-1 gene in 25 μM Ebselen group to vehicle group” value ([2]; after 4 hours) is given as 450 ± 74% and the “Induction ratio of expression of NQO-1 gene in 25 μM Ebselen group to vehicle group” value ([2]; after 8 hours) is given as 937 ± 183%. For the same molecule, the “Induction ratio of expression of NQO-1 gene in 25 μM Ebselen group to vehicle group” value ([2]; after 12 hours) was 1266 ± 212%, the “Induction ratio of expression of TRxR gene in 25 μM Ebselen group to vehicle group” value ([3]; after 4 hours) was 225 ± 11% and the “Induction ratio of expression of TRxR gene in 25 μM Ebselen group to vehicle group” value ([3]; after 8 hours) was 193 ± 13%. The “Induction ratio of expression of TRxR gene in 25 μM Ebselen group to vehicle group” value ([3]; after 12 hours) was 301 ± 26%, the “Induction ratio of expression of HO-1 gene in 25 μM Ebselen group to vehicle group” value ([4]; after 4 hours) was 1263 ± 365% and the “Induction ratio of expression of HO-1 gene in 25 μM Ebselen group to vehicle group” value ([4]; after 8 hours) was 1458 ± 307%. The “Induction ratio of expression of HO-1 gene in 25 μM Ebselen group to vehicle group” value ([4]; after 12 hours) was 1311 ± 237%, the “Induction ratio of expression of GCLM gene in 25 μM Ebselen group to vehicle group” value ([5]; after 4 hours) was 198 ± 18% and the “Induction ratio of expression of GCLM gene in 25 μM Ebselen group to vehicle group” value ([5]; after 8 hours) was 194 ± 14%. For the same molecule, the “Induction ratio of expression of GCLM gene in 25 μM Ebselen group to vehicle group” value ([5]; after 12 hours) was 172 ± 13%, the “Suppression ratio against decrease in the number of cells in retinal ganglion cell layer” value ([6]; 3 mg/kg/day) was 38.0% and the “Suppression ratio against decrease in the number of cells in retinal ganglion cell layer” value ([6]; 30 mg/kg/day) was 59.7%. The “Effect on b-wave of the electroretinogram (ERG) after ischemia/reperfusion” value [7] was “attenuated the reduction of the b-wave”.
